Assay results: patent US20250032484A1, “THERAPEUTIC TARGETS AND AGENTS FOR THE TREATMENT OF POSTTRAUMATIC STRESS DISORDER” (priority 2021, published 2025)

Legend:
[1] = FDA clinical review NDA 209394; cited from earlier work
[2] = tested on: VA patients with PTSD (PTSD symptoms, PTSD Checklist); assay: TreeScan nested case-control study of medications associated with PTSD symptom improvement (PTSD Checklist) in VA records; assay type: in vivo, human
Method: Study Sample and Data Sources. A nested case-control study was conducted within a previously established retrospective cohort that included all VA users with a clinical diagnosis of PTSD (International Classification of Diseases [ICD]-9:309.81, ICD-10: F43.1x) from Oct. 1, 1999 through Sep. 30, 2019 (Shiner et al. (2021) J Eval Clin Pract.). The data source contains information on services use, clinical diagnoses, filled prescriptions, and patient-reported outcome measures (PROMs) for PTSD using the PTSD Checklist (PCL) for these patients. This study was approved by the Veterans Institutional Review Board of Northern New England.
The goal of the current study was to evaluate any filled medications associated with PTSD symptom improvement, and as such, the analytic sample for this study included only patients with PROMs that were at least 30 days apart. 30 days was selected to allow for medications to be taken for at least one full course (typically 28 days). Patients with PROMs more than 365 days apart were excluded as these are unlikely to provide an accurate assessment of PTSD symptom change between the two time points. For patients who had two overlapping PROM intervals, those closest to 84 days in length were chosen to emulate typical PTSD medication efficacy trials (Watts et al. (2013) J Clin Psychiatry. 74: e541-550). When a patient had two or more overlapping intervals at exactly 84 days, the historically earliest interval was chosen. If patients had multiple non-overlapping intervals, all were included. Patients who met the selection criteria for PTSD in the original cohort and had at least one PROM pair where they started a new medication (defined below) constituted the overall analytic sample for the current study.
PTSD Improvement Cases and No Improvement Controls. In order to maximize the number of patients with available symptomatic measurement, two different versions of a PROM for PTSD were integrated into a single dataset (Shiner et al. (2021) J Eval Clin Pract.). The two PROMs were the PCL versions aligned to the Diagnostic and Statistical Manual of Mental Disorders (DSM), version IV and Version 5 (APA (2000): Diagnostic and Statistical Manual of Mental Disorders. 4th Edition. Text Revision: DSM-IV-TR. Arlington, VA: American Psychiatric Association: APA (2013): Diagnostic and Statistical Manual of Mental Disorders: Fifth Edition (DSM-5). Washington, D.C.: American Psychiatric Association), which will heretofore be called the PCL-IV and the PCL-5 (Blevins et al. (2015) J Trauma Stress. 28:489-498: Weathers et al. (1993) Trauma. Coping. and Adaptation. San Antonio, Texas: International Society for Traumatic Stress Studies, 9th Annual Meeting). […] A validated crosswalk (ICC=0.96) was used to convert all values to PCL-5 scoring (Moshier et al. (Under review): An empirical crosswalk for the PTSD Checklist: Translating DSM-IV to DSM-5). PTSD improvement cases were defined by a clinically meaningful improvement, which was a decrease of 15 points or more between assessment points (Lee et al. (2019) Reliable Change Index and Clinically Significant Margins for the CAPS-5 and PCL-5 among Veterans. Boston, MA: International Society for Traumatic Stress Studies, 35th Annual Meeting). […] Thus, the no PTSD improvement control group was defined as worsening of symptoms or reductions of up to 7 points on the PCL. Improvements between 8 and 14 points were of uncertain clinical significance and were therefore excluded.
Identification and Classification of New Medications. The predictors of interest were initiation of medications for any indication. Candidate agents included those that were started in the interval between PCL pairs and continued for at least a 28-day supply. When patients started multiple medications between a given PCL pair, they contributed information for each of the medications in the tree.

[3] = baseline PCL 38 or higher, PTSD diagnosis within 30 days, without any concurrent evidence-based treatment
[4] = baseline PCL score of 38 or higher and PTSD diagnosis within 30 days
[5] = overall sample without any concurrent evidence-based treatment

For glecaprevir, the BBB permeability [1] is given as “poor BBB permeability”, the “EXP = Expected Cases” value ([2]; all patients in the overall sample) is given as 16 and the “EXP = Expected Cases” value [2, 3] is given as 4. The “O:E = Observed Cases over Expected Cases” value [2, 3] was 3.52, the “OBS = Observed Cases” value [2, 3] was 14 and the “EXP = Expected Cases” value [2, 4] was 14. The “O:E = Observed Cases over Expected Cases” value [2, 4] was 2.21, the “OBS = Observed Cases” value [2, 4] was 30 and the “OBS = Observed Cases” value ([2]; case = improved by 15 or more points on PTSD Checklist, all patients in the overall sample) was 33. The “O:E = Observed Cases over Expected Cases” value ([2]; improvement in PTSD, all patients in the overall sample) was 2.09, the “O:E = Observed Cases over Expected Cases” value ([2]; improvement in PTSD, all patients in the overall sample, listed as glecaprevir) was 2.09 and the “EXP = Expected Cases” value [2, 5] was 5. For the same substance, the “O:E = Observed Cases over Expected Cases” value [2, 5] was 3.09 and the “OBS = Observed Cases” value [2, 5] was 14.
